Experimental data from BindingDB's records for doi:10.7270/Q2W37TVH (Novartis Pharma, 1997).

Target: Dihydroorotate dehydrogenase (quinone), mitochondrial (Homo sapiens, UniProt Q02127)
Assay: Spectrophotometric Assay
Text: Spectrophotometric assay using crude human, recombinant DHODHase.

Dihydroorotate dehydrogenase (quinone), mitochondrial, sequence (Q02127 whole entry): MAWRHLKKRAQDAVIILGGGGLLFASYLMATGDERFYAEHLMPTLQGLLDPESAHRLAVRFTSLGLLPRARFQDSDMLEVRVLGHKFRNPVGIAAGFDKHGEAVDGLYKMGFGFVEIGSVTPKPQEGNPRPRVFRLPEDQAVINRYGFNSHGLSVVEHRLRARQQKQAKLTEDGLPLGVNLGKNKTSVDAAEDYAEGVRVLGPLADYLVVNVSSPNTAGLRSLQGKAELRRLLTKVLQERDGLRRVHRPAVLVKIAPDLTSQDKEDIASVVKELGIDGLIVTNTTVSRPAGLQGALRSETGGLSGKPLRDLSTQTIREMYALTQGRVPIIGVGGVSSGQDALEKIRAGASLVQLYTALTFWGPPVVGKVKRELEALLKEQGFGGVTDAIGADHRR

| SMILES | IC50 |
| --- | --- |
| N#C/C(C(=O)Nc1ccc(C(F)(F)F)cc1)=C1\CCCCO1 [Tetrahydropyranyl derivative, 8 (Z)] | > 50 µM |
| N#C/C(C(=O)Nc1ccc(C(F)(F)F)cc1)=C1/CCCCO1 [Tetrahydropyranyl derivative, 8 (E)] | > 50 µM |
| N#C/C(C(=O)Nc1ccc(C(F)(F)F)cc1)=C1/CCOC1 [Tetrahydrofuranyl derivative, 7 (E)] | > 50 µM |
| N#Cc1ccc(NC(=O)C(C#N)C(=O)C2CC2)cc1 (stereo not drawn) [Alpha-cyano-beta-hydroxy enamide, 6] | 0.6 µM |
| N#C/C(C(=O)Nc1ccc(C(F)(F)F)cc1)=C1\CCCO1 [Tetrahydrofuranyl derivative, 7 (Z)] | > 50 µM |

More lines, now with the values ahead:

| IC50 | SMILES |
| --- | --- |
| 1.3 µM | CC(=O)C(C#N)C(=O)Nc1ccc(C#N)cc1 (stereo not drawn) [Alpha-cyano-beta-hydroxy enamide, 3] |
| 16.2 µM | CC(C)(C)C(=O)C(C#N)C(=O)Nc1ccc(C(F)(F)F)cc1 (stereo not drawn) [Alpha-cyano-beta-hydroxy enamide, 4] |
| 0.13 µM | CC(C)(C)CCC(=O)C(C#N)C(=O)Nc1ccc(C(F)(F)F)cc1 (stereo not drawn) [Alpha-cyano-beta-hydroxy enamide, 5] |
| 15.2 µM | CC(=O)C(C#N)C(=O)Nc1ccccc1 (stereo not drawn) [Alpha-cyano-beta-hydroxy enamide, 2] |
